Test results: patent publication US10076519B2 (CYTOKINETICS, INC., priority 2010, dated 2018)

tested on: rabbit skeletal myofibrils (fast skeletal myofibrils); assay: Activation of fast skeletal myofibrils (PUMA assay, PK/LDH-coupled ATPase at pCa25); assay type: biochemical; conditions: AC1.4 determined according to the procedure of Example 39; reported as class symbols
How it was run: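 ATPase activity of Triton-washed rabbit skeletal myofibrils, roughly 90% fast fibres, tracked by NADH loss at 340 nm through a PK/LDH-coupled ADP-regenerating system. Calcium set to 25% of maximal activity (pCa25), in PIPES 12 mM pH 6.8 with 2 mM MgCl2 and 1 mM DTT; AC1.4 reported.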

Row | SMILES | Mean AC1.4
1 | COc1cccnc1C1(CNc2ccc(-c3ccc4cn[nH]c4c3)nn2)CCC1 [(6-(1H-indazol-6-yl)pyridazin-3-yl){[(3-methoxy(2-pyridyl))cyclobutyl]methyl}amine] | B (B=1-10 uM)
2 | Nc1n[nH]c2ccc(-c3ccc(NCC4(c5ccccc5F)CCC4)nn3)cc12 [[6-(3-amino(1H-indazol-5-yl))pyridazin-3-yl]{[(2-fluorophenyl)cyclobutyl]meth-yl}amine] | A (A=<1 uM)
3 | N=C(N)c1cccc(-c2ccc(NCC3(c4ncccc4F)CCC3)nn2)c1 | D (D=>20 uM)
4 | NC(=O)c1ccc(F)c(-c2ccc(NCC3(c4ccccn4)CCC3)nn2)c1 | A (A=<1 uM)
5 | CCc1n[nH]c2ccc(-c3ccc(NCC(C)(C)c4ccc(F)cc4)nn3)cc12 [[6-(3-ethyl(1H-indazol-5-yl))pyridazin-3-yl][2-(4-fluorophenyl)-2-methylpropyl]amine] | B (B=1-10 uM)
6 | CC1(C)CC1(CNc1ccc(-c2ccc3[nH]nc(N)c3c2)nn1)c1ccccc1 (centres unmarked) | A (A=<1 uM)
7 | CN(C)Cc1ccc(C(C)(C)CNc2ccc(-c3ccc4[nH]nc(N)c4c3)nn2)cc1 | D (D=>20 uM)
8 | CC(C)(C)OC(=O)NCCCNC(=O)c1cccc(-c2ccc(NCC(C)(C)c3ccc(F)cc3)nn2)c1 [N-{3-[(tert-butoxy)carbonylamino]propyl}[3-(6-{[2-(4-fluorophenyl)-2-methylpropyl]amino}pyridazin-3-yl)phenyl]carboxamide] | B (B=1-10 uM)
9 | CC(C)(CNc1ccc(-c2cc(C(N)=O)ccn2)nn1)c1ccc(F)cc1 [2-(6-{[2-(4-fluorophenyl)-2-methylpropyl]amino}pyridazin-3-yl)pyridine-4-carboxamide] | A (A=<1 uM)
10 | CC(=O)Nc1nc(-c2ccc(NCC(C)(C)c3ccc(F)cc3)nn2)c[nH]1 [N-[4-(6-{[2-(4-fluorophenyl)-2-methylpropyl]amino}pyridazin-3-yl)imidazol-2-yl]acetamide] | C (C=10-20 uM)
11 | CC(CNc1ccc(-c2cccc(C(N)=O)c2)nn1)N1CCCC1=O (centres unmarked) | D (D=>20 uM)
12 | CS(=O)(=O)Nc1ccc(-c2ccc(NCC3(c4ncccc4F)CCC3)nn2)cc1 | B (B=1-10 uM)
13 | CS(=O)(=O)N1CC(CNc2ccc(-c3cccc(C(N)=O)c3)nn2)(c2ncccc2F)C1 [3-[6-({[3-(3-fluoro(2-pyridyl))-1-(methylsulfonyl)azetidin-3-yl]methyl}amino)pyridazin-3-yl]benzamide] | D (D=>20 uM)
14 | N#Cc1cccc(-c2ccc(NCCc3ccc(Cl)cc3Cl)nn2)c1 | D (D=>20 uM)
15 | CC(C)(CNc1ccc(-c2cccc(N)n2)nn1)c1ccc(F)cc1 [[6-(6-amino(2-pyridyl))pyridazin-3-yl][2-(4-fluorophenyl)-2-methylpropyl]amine] | B (B=1-10 uM)
16 | CC(C)(CNc1ccc(-c2cccc(C(N)=O)c2)nn1)c1ccccc1Cl [3-(6-{[2-(2-chlorophenyl)-2-methylpropyl]amino}pyridazin-3-yl)benzamide] | A (A=<1 uM)
17 | CC(C)(CNc1ccc(-c2cccc(CO)c2)nn1)c1ccc(F)cc1 [[3-(6-{[2-(4-fluorophenyl)-2-methylpropyl]amino}pyridazin-3-yl)phenyl]methan-1-ol] | B (B=1-10 uM)
18 | CC(C)(CNc1ccc(-c2ccc3[nH]nc(N)c3c2)nn1)c1ccc(CN)cc1 [[6-(3-amino(1H-indazol-5-yl))pyridazin-3-yl]{2-[4-(aminomethyl)phenyl]-2-methylpropyl}amine] | D (D=>20 uM)
19 | c1ccc(C2(CNc3ccc(-c4ccc5cn[nH]c5c4)nn3)CCC2)nc1 [(6-(1H-indazol-6-yl)pyridazin-3-yl)[(2-pyridylcyclobutyl)methyl]amine] | A (A=<1 uM)
20 | CC(C)(CNc1ccc(-c2ccc3[nH]c(=O)c(=O)[nH]c3c2)nn1)c1ccc(F)cc1 [6-(6-{[2-(4-fluorophenyl)-2-methylpropyl]amino}pyridazin-3-yl)-1,4-dihydroquinoxaline-2,3-dione] | A (A=<1 uM)
21 | CC(C)(CNc1ccc(-c2cncnc2)nn1)c1ccccc1Cl [[2-(2-chlorophenyl)-2-methylpropyl](6-pyrimidin-5-ylpyridazin-3-yl)amine] | B (B=1-10 uM)
22 | C=Cc1n[nH]c2ccc(-c3ccc(NCC(C)(C)c4ccc(F)cc4)nn3)cc12 [[2-(4-fluorophenyl)-2-methylpropyl][6-(3-vinyl(1H-indazol-5-yl))pyridazin-3-yl]amine] | A (A=<1 uM)

same assay, conditions: median AC1.4 class, procedure of Example 39

Row | SMILES | Mean AC1.4
23 | CC(C)(Nc1ccc(-c2ncc(C(N)=O)s2)nn1)c1ncccc1Cl [2-(6-{[1-(3-chloro(2-pyridyl))-isopropyl]amino}pyridazin-3-yl)-1,3-thiazole-5-carboxamide] | B (B=1-10 uM)
24 | Fc1cccnc1C1(CNc2ccc(-c3ncccc3Cl)nn2)CCC1 [[6-(3-chloro(2-pyridyl))pyridazin-3-yl]{[(3-fluoro(2-pyridyl))cyclobutyl]methyl}amine] | C (C=10-20 uM)
25 | Fc1cccnc1C1(CNc2ccc(-c3ncccn3)nn2)CCC1 [{[(3-fluoro(2-pyridyl))cyclobutyl]methyl}(6-pyrimidin-2-ylpyridazin-3-yl)amine] | B (B=1-10 uM)
26 | C=Cc1ccc(NC2(c3ncccc3F)CCC2)nn1 [[(3-fluoro(2-pyridyl))cyclobutyl](6-vinylpyridazin-3-yl)amine] | D (D=>20 uM)
27 | O=C(NCc1cnc(-c2ccc(NCC3(c4ncccc4F)CCC3)nn2)s1)c1ccn[nH]1 [N-({2-[6-({[(3-fluoro(2-pyridyl))cyclobutyl]methyl}ami-no)pyridazin-3-yl](1,3-thiazol-5-yl)}methyl)pyrazol-5-ylcarboxamide] | A (A=<1 uM)
28 | NC(=O)CNc1ncc(-c2ccc(NCC3(c4ncccc4F)CCC3)nn2)cn1 | C (C=10-20 uM)
29 | NC(=O)c1cc(-c2ccc(NCC3(c4ncccc4F)CCC3)nn2)ccc1O | A (A=<1 uM)
30 | COc1cc(-c2ccc(NCC3(c4ncccc4F)CCC3)nn2)ccc1C(=O)O | D (D=>20 uM)
31 | O=C(NC1CCNC1=O)c1cnc(-c2ccc(NCC3(c4ncccc4F)CCC3)nn2)s1 (centres unmarked) [{2-[6-({[(3-fluoro(2-pyridyl))cyclobutyl]methyl}ami-no)pyridazin-3-yl](1,3-thiazol-5-yl)}-N-(2-oxopyrrolidin-3-yl)carboxamide] | B (B=1-10 uM)
32 | O=C(NCC1CCCO1)c1cnc(-c2ccc(NCC3(c4ncccc4F)CCC3)nn2)s1 (centres unmarked) [{2-[6-({[(3-fluoro(2-pyridyl))cyclobutyl]methyl}ami-no)pyridazin-3-yl](1,3-thiazol-5-yl)}-N-(oxolan-2-ylmethyl)carboxamide] | B (B=1-10 uM)
33 | CCOC(=O)/C=C/c1ccc(NCC2(c3ncccc3F)CCC2)nn1 | D (D=>20 uM)

same assay, conditions: median AC1.4 reported as class; procedure of Example 39

Row | SMILES | Mean AC1.4
34 | NC(=O)c1cc2cc(-c3ccc(NC[C@]4(c5ncccc5F)C[C@H](F)C4)nn3)ccc2[nH]1 [5-[6-({[3-fluoro-1-(3-fluoro(2-pyridyl))cyclobutyl]methyl}ami-no)pyridazin-3-yl]indole-2-carboxamide] | A (A=<1 uM)
35 | CN1CCN(Cc2cnc(-c3ccc(NCC4(c5ncccc5F)CCC4)nn3)s2)CC1 [{[(3-fluoro(2-pyridyl))cyclobutyl]methyl}(6-{5-[(4-methylpiperazinyl)methyl](1,3-thiazol-2-yl)}pyridazin-3-yl)amine] | B (B=1-10 uM)
36 | CNC(=O)c1cc(C)cc(-c2ccc(NC[C@]3(c4ncccc4F)C[C@H](F)C3)nn2)c1O [{3-[6-({[3-fluoro-1-(3-fluoro(2-pyridyl))cyclobutyl]methyl}ami-no)pyridazin-3-yl]-2-hydroxy-5-methylphenyl}-N-methylcarboxamide] | B (B=1-10 uM)
37 | CNC(=O)N(C)c1ccc(-c2ccc(NC[C@]3(c4ncccc4F)C[C@H](F)C3)nn2)cc1 [N-{4-[6-({[3-fluoro-1-(3-fluoro(2-pyridyl))cyclobutyl]methyl}ami-no)pyridazin-3-yl]phenyl}-N-methyl(methylamino)carboxamide] | D (D=>20 uM)
38 | COC(=O)CCc1cnc(-c2ccc(NCC3(c4ncccc4F)CCC3)nn2)s1 [methyl 3-{2-[6-({[(3-fluoro-2-pyridyl)cyclobutyl]methyl}ami-no)pyridazin-3-yl]-1,3-thiazol-5-yl}propanoate] | B (B=1-10 uM)
39 | O=C(NC1CC1)c1ccc(F)c(-c2ccc(NC[C@]3(c4ncccc4F)C[C@H](F)C3)nn2)c1 [N-cyclopropyl{4-fluoro-3-[6-({[3-fluoro-1-(3-fluoro(2-pyridyl))cyclobutyl]methyl}ami-no)pyridazin-3-yl]phenyl}carboxamide] | A (A=<1 uM)
40 | O=C(NCc1ccccn1)c1ccc(NCC2(c3ncccc3F)CCC2)nn1 [[6-({[(3-fluoro(2-pyridyl))cyclobutyl]methyl}ami-no)pyridazin-3-yl]-N-(2-pyridylmethyl)carboxamide] | D (D=>20 uM)
41 | CC(=O)N1CC(NC(=O)c2cccc(-c3ccc(NC[C@]4(c5ncccc5F)C[C@H](F)C4)nn3)c2)C1 [N-(1-acetylazetidin-3-yl){3-[6-({[3-fluoro-1-(3-fluoro(2-pyridyl))cyclobutyl]methyl}ami-no)pyridazin-3-yl]phenyl}carboxamide] | B (B=1-10 uM)
42 | NC(=O)c1ccc(F)c(-c2ccc(NC[C@]3(c4ncccc4F)C[C@H](F)C3)nn2)c1O [4-fluoro-3-[6-({[3-fluoro-1-(3-fluoro(2-pyridyl))cyclobutyl]methyl}ami-no)pyridazin-3-yl]-2-hydroxybenzamide] | A (A=<1 uM)
43 | NC(=O)c1ccc(F)c(-c2ccc(NCC3(c4ncccc4F)CCC3)nn2)c1O [4-fluoro-3-[6-({[(3-fluoro(2-pyridyl))cyclobutyl]methyl}ami-no)pyridazin-3-yl]-2-hydroxybenzamide] | A (A=<1 uM)
44 | N#Cc1cc(N)cc(-c2ccc(NC[C@]3(c4ncccc4F)C[C@H](F)C3)nn2)c1 [5-amino-3-[6-({[3-fluoro-1-(3-fluoro(2-pyridyl))cyclobutyl]methyl}ami-no)pyridazin-3-yl]benzenecarbonitrile] | A (A=<1 uM)
